SMILES strings stand for the structures.

What all share (format): in vitro ADME
For data set [1], the system named is T1, endogenous canine ABCB1.
T1 construct: the low-level endogenous canine ABCB1 present in MDCK-II cells; host or cells: parental MDCK-II cells (canine kidney)
In words: Transepithelial transport, parental MDCK-II cells. As to conditions: dog, pH 7.4, with zosuquidar 5 µM, 5 µM, + zosuquidar 5 µM, read-out: efflux transport ratio r. From the text:
(§1) Polarized Madin-Darby Canine Kidney (MDCK-II) cells (ECACC 00062107) stably transduced with either human (h) ABCB1, hABCG2 or mouse (m) Abcg2 cDNA were generated in our institute between 1995–2005. The proper identity and functionality, such as highly characteristic growth and drug transporter properties, including inhibitor sensitivity, were regularly checked in these epithelial cells. Mycoplasma routinely tested negative in these cells. The passage number was 10–15 when used in the transport experiments.
(§2) Transepithelial transport experiments were performed as previously described with 12-well plates (Transwell 3414, Corning Inc., Kennebunk, ME, USA) containing microporous polycarbonate membrane filters (3.0 µm pore size, 12 mm diameter). […]
(§3) After pre-incubation with 5 µM zosuquidar (ABCB1 inhibitor) and/or 5 µM Ko143 (ABCG2/Abcg2 inhibitor) in both compartments (when appropriate) for 1 h, the transport phase was initiated (t = 0) by replacing the medium in apical and basolateral compartments with fresh DMEM with 10% FBS and the appropriate inhibitor(s), and repotrectinib at 5 µM in the donor compartment. […] The active transport ratio r, calculated by dividing the amount of apically directed drug transport by basolaterally directed drug translocation after 8 h, was used to assess active transport of repotrectinib.

Data set [2] addresses T2, endogenous canine ABCB1 (Canis lupus familiaris, UniProt C0KKU9).
T2 construct: the low-level endogenous canine ABCB1 present in MDCK-II cells; host or cells: parental MDCK-II cells (canine kidney)
In words: Transepithelial transport, parental MDCK-II cells. As to conditions: dog, pH 7.4, repotrectinib 5 µM, no inhibitor, read-out: efflux transport ratio r.
Text: as §1, §2, §3

Data set [3] concerns the target T3, human ABCB1 (Homo sapiens, UniProt P08183).
T3 construct: expressed in transfected cells; host or cells: MDCK-II cells stably transduced with hABCB1 cDNA (made in the authors' institute)
In words: Transepithelial transport, MDCK-II cells transduced with hABCB1. As to conditions: MDCK-MDR1, pH 7.4, MDCK-II hABCB1, 5 µM, no inhibitor, read-out: efflux transport ratio r.
Text: as §1, §2, §3

The test system of data set [4] is T4, human ABCB1.
T4 construct: expressed in transfected cells; host or cells: MDCK-II cells stably transduced with hABCB1 cDNA (made in the authors' institute)
The description is as above. As to conditions: MDCK-MDR1, pH 7.4, with zosuquidar 5 µM, MDCK-II hABCB1, 5 µM, + zosuquidar 5 µM, read-out: efflux transport ratio r.
Text: as §1, §2, §3

T2 sequence (C0KKU9 1-1281): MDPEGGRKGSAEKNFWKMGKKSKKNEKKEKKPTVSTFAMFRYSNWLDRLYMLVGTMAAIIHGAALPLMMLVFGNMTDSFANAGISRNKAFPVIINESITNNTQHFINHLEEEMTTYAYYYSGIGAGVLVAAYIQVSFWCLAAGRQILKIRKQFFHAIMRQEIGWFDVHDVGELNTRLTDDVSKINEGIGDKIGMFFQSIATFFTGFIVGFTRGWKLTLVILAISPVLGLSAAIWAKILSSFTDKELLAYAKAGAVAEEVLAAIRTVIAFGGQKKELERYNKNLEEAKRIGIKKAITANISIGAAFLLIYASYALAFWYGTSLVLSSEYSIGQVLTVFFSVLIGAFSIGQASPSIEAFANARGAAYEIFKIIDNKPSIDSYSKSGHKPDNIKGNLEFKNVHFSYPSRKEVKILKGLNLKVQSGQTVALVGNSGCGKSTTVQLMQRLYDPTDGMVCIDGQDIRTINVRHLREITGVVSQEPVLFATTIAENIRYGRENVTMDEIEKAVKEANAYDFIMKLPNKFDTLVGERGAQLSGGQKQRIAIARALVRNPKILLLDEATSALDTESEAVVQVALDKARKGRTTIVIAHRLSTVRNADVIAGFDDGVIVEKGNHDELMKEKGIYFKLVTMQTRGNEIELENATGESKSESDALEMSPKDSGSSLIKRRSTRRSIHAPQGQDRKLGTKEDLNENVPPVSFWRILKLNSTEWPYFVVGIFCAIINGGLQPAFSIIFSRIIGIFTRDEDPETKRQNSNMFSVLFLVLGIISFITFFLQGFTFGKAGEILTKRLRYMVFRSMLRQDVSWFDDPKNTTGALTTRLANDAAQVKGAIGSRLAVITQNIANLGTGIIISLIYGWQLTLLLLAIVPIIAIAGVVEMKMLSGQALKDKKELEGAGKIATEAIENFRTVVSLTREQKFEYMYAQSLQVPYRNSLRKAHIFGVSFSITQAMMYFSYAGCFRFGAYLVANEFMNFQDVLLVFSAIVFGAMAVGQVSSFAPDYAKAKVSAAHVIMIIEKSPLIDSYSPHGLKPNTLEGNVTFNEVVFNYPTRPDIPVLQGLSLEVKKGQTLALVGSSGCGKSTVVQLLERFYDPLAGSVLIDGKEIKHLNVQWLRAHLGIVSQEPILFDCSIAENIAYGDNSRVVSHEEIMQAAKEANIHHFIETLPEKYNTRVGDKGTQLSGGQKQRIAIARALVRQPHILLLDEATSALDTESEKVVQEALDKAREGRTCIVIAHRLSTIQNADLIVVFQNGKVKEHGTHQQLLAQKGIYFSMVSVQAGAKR
T3 sequence (P08183 whole entry): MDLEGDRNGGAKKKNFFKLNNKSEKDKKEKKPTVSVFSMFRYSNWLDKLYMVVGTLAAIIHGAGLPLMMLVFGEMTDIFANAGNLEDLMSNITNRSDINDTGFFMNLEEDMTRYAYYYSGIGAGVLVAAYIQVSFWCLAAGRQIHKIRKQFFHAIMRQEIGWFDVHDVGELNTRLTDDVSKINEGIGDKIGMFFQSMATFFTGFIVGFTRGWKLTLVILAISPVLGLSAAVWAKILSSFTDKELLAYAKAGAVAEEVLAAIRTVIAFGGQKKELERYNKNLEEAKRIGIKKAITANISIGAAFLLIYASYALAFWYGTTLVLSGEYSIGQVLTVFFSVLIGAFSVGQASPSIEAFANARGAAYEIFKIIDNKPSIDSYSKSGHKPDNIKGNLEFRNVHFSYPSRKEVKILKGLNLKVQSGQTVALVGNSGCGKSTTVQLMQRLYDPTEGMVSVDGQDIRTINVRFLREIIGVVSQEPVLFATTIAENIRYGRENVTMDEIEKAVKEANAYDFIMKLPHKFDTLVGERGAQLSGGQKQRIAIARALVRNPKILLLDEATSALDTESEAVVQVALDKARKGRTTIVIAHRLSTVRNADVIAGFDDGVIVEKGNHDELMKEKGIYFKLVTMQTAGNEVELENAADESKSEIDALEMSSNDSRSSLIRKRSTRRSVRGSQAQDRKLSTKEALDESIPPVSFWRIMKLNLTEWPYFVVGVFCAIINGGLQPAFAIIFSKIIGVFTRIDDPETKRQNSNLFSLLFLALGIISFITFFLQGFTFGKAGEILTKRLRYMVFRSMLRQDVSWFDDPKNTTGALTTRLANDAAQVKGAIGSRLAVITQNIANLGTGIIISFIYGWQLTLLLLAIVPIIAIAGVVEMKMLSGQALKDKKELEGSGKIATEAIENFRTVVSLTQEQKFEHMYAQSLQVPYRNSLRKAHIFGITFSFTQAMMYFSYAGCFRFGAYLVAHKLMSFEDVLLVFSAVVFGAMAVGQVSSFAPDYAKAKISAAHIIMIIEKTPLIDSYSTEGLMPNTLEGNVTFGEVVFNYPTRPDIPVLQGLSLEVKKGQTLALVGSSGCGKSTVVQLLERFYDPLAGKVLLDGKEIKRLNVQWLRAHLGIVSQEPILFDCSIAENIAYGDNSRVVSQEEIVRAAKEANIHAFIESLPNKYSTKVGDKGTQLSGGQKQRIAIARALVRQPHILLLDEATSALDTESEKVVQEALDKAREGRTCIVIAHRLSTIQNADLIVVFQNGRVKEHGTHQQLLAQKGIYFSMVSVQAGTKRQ

On to `C[C@H]1CNC(=O)c2cnn3ccc(nc23)N[C@H](C)c2cc(F)ccc2O1` [repotrectinib], for which the efflux ratio at 8 h, 5 µM was found to be 1 in data set [1], 2.5 in data set [2], 13.5 in data set [3] and 1.1 in data set [4].

The values above are taken from publication PMC8619046, “ABCB1 and ABCG2 Control Brain Accumulation and Intestinal Disposition of the Novel ROS1/TRK/ALK Inhibitor Repotrectinib, While OATP1A/1B, ABCG2, and CYP3A Limit Its Oral Availability” (Pharmaceutics, 2021).
